The values below come from ChEMBL document CHEMBL5055650, “4-Acyl Pyrrole Capped HDAC Inhibitors: A New Scaffold for Hybrid Inhibitors of BET Proteins and Histone Deacetylases as Antileukemia Drug Leads” (J Med Chem, 2021).

For data set [1], the system named is K562. As to the kind of experiment: Induction of apoptosis in human K562 cells assessed as apoptosis at 2.9 uM after 24 to 72 hrs using annexin V/PI followed by flow cytometry. The class given is functional, cell-based. The following applies: time 24-72 hrs. On the technique in general: In flow cytometry, cells or beads pass a laser one at a time.
The species entered for data set [2] is Danio rerio. As to the kind of experiment: Toxicity in zebrafish embryos assessed as malformation of tail at 5 uM after 72 hrs by visual analysis (reference value: 5%). The class given is organism-based. The following applies: in vivo.
Data set [3] in a line: Nonlethal toxicity in zebrafish embryos assessed as embryo survival at 0.05 uM after 72 hrs by visual analysis (reference value: 100%). It counts as organism-based, Danio rerio. The following applies: in vivo.
The subject of data set [4] is HPBALL. In words: Anticancer activity against human HPBALL cells assessed as reduction in size of colony at 5 uM measured after 24 hrs by colony formation assay. The class given is functional, cell-based.
The species named for data set [5] is Danio rerio. As to the kind of experiment: Toxicity in zebrafish embryos assessed as tail necrosis at 0.05 uM after 72 hrs by visual analysis (reference value: 0%). The following applies: in vivo. The class given is organism-based.
The species named for data set [6] is Danio rerio. As to the kind of experiment: Toxicity in zebrafish embryos assessed as cardiac teratogenesis/necrosis at 0.5 uM after 72 hrs by visual analysis (reference value: 0%). The class given is organism-based, Embryo. The following applies: in vivo.
Data set [7] can be described thus: Nonlethal toxicity in zebrafish embryos assessed as embryo survival at 0.5 uM after 72 hrs by visual analysis (reference value: 100%). It counts as organism-based, Danio rerio. The following applies: in vivo.
A short description of data set [8]: Nonlethal toxicity in zebrafish embryos assessed as embryo survival at 0.005 uM after 72 hrs by visual analysis (reference value: 100%). The class given is organism-based, Danio rerio. The following applies: in vivo.
For data set [9], the species on record is Danio rerio. As to the kind of experiment: Toxicity in zebrafish embryos assessed as brain hemorrhage at 5 uM after 72 hrs by visual analysis (reference value: 0%). It counts as organism-based. The following applies: in vivo.
The species named for data set [10] is Danio rerio. In words: Toxicity in zebrafish embryos assessed as brain hemorrhage at 0.5 uM after 72 hrs by visual analysis (reference value: 0%). The class given is organism-based. The following applies: in vivo.
For data set [11], the species on record is Danio rerio. In words: Toxicity in zebrafish embryos assessed as small eyes at 0.05 uM after 72 hrs by visual analysis (reference value: 10%). The following applies: in vivo. The class given is organism-based, Embryo.
The species named for data set [12] is Danio rerio. As to the kind of experiment: Toxicity in zebrafish embryos assessed as malformation of tail at 50 uM after 72 hrs by visual analysis (reference value: 5%). It counts as organism-based. The following applies: in vivo.
For data set [13], the species on record is Danio rerio. As to the kind of experiment: Toxicity in zebrafish embryos assessed as head necrosis at 50 uM after 72 hrs by visual analysis (reference value: 0%). The class given is organism-based. The following applies: in vivo.
For data set [14], the species on record is Danio rerio. In words: Toxicity in zebrafish embryos assessed as tail necrosis at 5 uM after 72 hrs by visual analysis (reference value: 0%). The class given is organism-based. The following applies: in vivo.
Data set [15] relates to Danio rerio. In words: Toxicity in zebrafish embryos assessed as pericardial edema at 0.05 uM after 72 hrs by visual analysis (reference value: 10%). It counts as organism-based, Embryo. The following applies: in vivo.
Data set [16] is filed under the species Danio rerio. In words: Toxicity in zebrafish embryos assessed as malformation of tail at 0.05 uM after 72 hrs by visual analysis (reference value: 5%). The class given is organism-based. The following applies: in vivo.
For data set [17], the species on record is Danio rerio. In words: Toxicity in zebrafish embryos assessed as brain hemorrhage at 50 uM after 72 hrs by visual analysis (reference value: 0%). It counts as organism-based. The following applies: in vivo.
The species entered for data set [18] is Danio rerio. As to the kind of experiment: Toxicity in zebrafish embryos assessed as cardiac teratogenesis/necrosis at 50 uM after 72 hrs by visual analysis (reference value: 0%). The class given is organism-based, Embryo. The following applies: in vivo.
Data set [19] concerns Danio rerio. As to the kind of experiment: Toxicity in zebrafish embryos assessed as yolk sac edema at 0.05 uM after 72 hrs by visual analysis (reference value: 0%). The class given is organism-based, Embryo. The following applies: in vivo.
The subject of data set [20] is Danio rerio. As to the kind of experiment: Toxicity in zebrafish embryos assessed as yolk sac edema at 0.5 uM after 72 hrs by visual analysis (reference value: 0%). It counts as organism-based, Embryo. The following applies: in vivo.
Data set [21] is described as follows: Nonlethal toxicity in zebrafish embryos assessed as embryo survival at 5 uM after 72 hrs by visual analysis (reference value: 100%). It counts as organism-based, Danio rerio. The following applies: in vivo.
The species named for data set [22] is Danio rerio. As to the kind of experiment: Toxicity in zebrafish embryos assessed as cardiac teratogenesis/necrosis at 0.005 uM after 72 hrs by visual analysis (reference value: 0%). It counts as organism-based, Embryo. The following applies: in vivo.
The species entered for data set [23] is Danio rerio. As to the kind of experiment: Toxicity in zebrafish embryos assessed as malformation of tail at 0.5 uM after 72 hrs by visual analysis (reference value: 5%). It counts as organism-based. The following applies: in vivo.
For data set [24], the system named is HPBALL. As to the kind of experiment: Anticancer activity against human HPBALL cells assessed as reduction in total number of colony forming units at 5 uM measured after 24 hrs by colony formation assay. The class given is functional, cell-based.
The subject of data set [25] is HPBALL. As to the kind of experiment: Induction of apoptosis in human HPBALL cells assessed as annexin V positive cells at 5 uM after 48 hrs by annexin V/PI staining measured by flow cytometry. The class given is functional, cell-based.
Data set [26] deals with Danio rerio. As to the kind of experiment: Toxicity in zebrafish embryos assessed as pericardial edema at 50 uM after 72 hrs by visual analysis (reference value: 10%). The following applies: in vivo. The class given is organism-based, Embryo.
Data set [27] concerns Danio rerio. As to the kind of experiment: Toxicity in zebrafish embryos assessed as yolk sac edema at 50 uM after 72 hrs by visual analysis (reference value: 0%). It counts as organism-based, Embryo. The following applies: in vivo.
In data set [28] the test system is Danio rerio. As to the kind of experiment: Toxicity in zebrafish embryos assessed as yolk sac edema at 0.005 uM after 72 hrs by visual analysis (reference value: 0%). It counts as organism-based, Embryo. The following applies: in vivo.
Data set [29] is filed under the species Danio rerio. As to the kind of experiment: Toxicity in zebrafish embryos assessed as malformation of head at 0.005 uM after 72 hrs by visual analysis (reference value: 0%). It counts as organism-based. The following applies: in vivo.
The species named for data set [30] is Danio rerio. In words: Toxicity in zebrafish embryos assessed as head necrosis at 0.005 uM after 72 hrs by visual analysis (reference value: 0%). The following applies: in vivo. It counts as organism-based.
The species named for data set [31] is Danio rerio. In words: Toxicity in zebrafish embryos assessed as malformation of head at 0.05 uM after 72 hrs by visual analysis (reference value: 0%). The class given is organism-based. The following applies: in vivo.
The nature of data set [32]: Nonlethal toxicity in zebrafish embryos assessed as embryo survival at 50 uM after 72 hrs by visual analysis (reference value: 100%). The class given is organism-based, Danio rerio. The following applies: in vivo.
The species named for data set [33] is Danio rerio. In words: Toxicity in zebrafish embryos assessed as small eyes at 50 uM after 72 hrs by visual analysis (reference value: 10%). The class given is organism-based, Embryo. The following applies: in vivo.
For data set [34], the system named is Danio rerio. In words: Toxicity in zebrafish embryos assessed as yolk sac edema at 5 uM after 72 hrs by visual analysis (reference value: 0%). It counts as organism-based, Embryo. The following applies: in vivo.
For data set [35], the species on record is Danio rerio. In words: Toxicity in zebrafish embryos assessed as teratogenesis at 50 uM after 72 hrs by visual analysis (reference value: 0%). The following applies: in vivo. It counts as organism-based, Embryo.
For data set [36], the species on record is Danio rerio. In words: Toxicity in zebrafish embryos assessed as tail necrosis at 50 uM after 72 hrs by visual analysis (reference value: 0%). The following applies: in vivo. The class given is organism-based.
The species entered for data set [37] is Danio rerio. In words: Toxicity in zebrafish embryos assessed as teratogenesis at 5 uM after 72 hrs by visual analysis (reference value: 0%). The class given is organism-based, Embryo. The following applies: in vivo.
The species entered for data set [38] is Danio rerio. In words: Toxicity in zebrafish embryos assessed as small eyes at 0.005 uM after 72 hrs by visual analysis (reference value: 10%). It counts as organism-based, Embryo. The following applies: in vivo.
The species named for data set [39] is Danio rerio. As to the kind of experiment: Toxicity in zebrafish embryos assessed as head necrosis at 0.5 uM after 72 hrs by visual analysis (reference value: 0%). The class given is organism-based. The following applies: in vivo.
Data set [40] is filed under the species Danio rerio. As to the kind of experiment: Toxicity in zebrafish embryos assessed as cardiac teratogenesis/necrosis at 5 uM after 72 hrs by visual analysis (reference value: 0%). The following applies: in vivo. The class given is organism-based, Embryo.
In data set [41] the test system is Danio rerio. In words: Toxicity in zebrafish embryos assessed as pericardial edema at 0.5 uM after 72 hrs by visual analysis (reference value: 10%). It counts as organism-based, Embryo. The following applies: in vivo.
For data set [42], the system named is K562. In words: Induction of apoptosis in human K562 cells assessed as apoptosis at 3.4 uM after 24 to 72 hrs using annexin V/PI followed by flow cytometry. The class given is functional, cell-based. The following applies: time 24-72 hrs.

Activity calls are given as the source filed them. No cut-off for these calls is given here.

Turning to `COc1ccc(S(=O)(=O)n2ccc(/C=C/C(=O)NO)c2)cc1NC(=O)c1[nH]c(C)c2c1CCCCC2=O`, the outcome in the data set with K562 [1] was Active.
On to `Cc1[nH]c(C(=O)Nc2cc(S(=O)(=O)N3CCOCC3)ccc2OCCCCCCCC(=O)NO)c2c1C(=O)CCCC2`, for which the Activity in the data set filed under Danio rerio [2] turned out to be 10%; in the data set listed under Danio rerio [5], 0%; in the data set filed under Danio rerio [6], 0%; in the data set filed under Danio rerio [9], 0%; in the data set listed under Danio rerio [10] it was 0%; in the data set listed under Danio rerio [11] it was 5%. For the same compound, the Activity in the data set filed under Danio rerio [12] was found to be 15%; in the data set listed under Danio rerio [13], 15%; in the data set filed under Danio rerio [14] it was 0%; with Danio rerio [15] it was 10%; in the data set listed under Danio rerio [16] it was 0%; in the data set listed under Danio rerio [17], 0%. Further, the Activity in the data set listed under Danio rerio [18] is 0%; in the data set on Danio rerio [19] it was 5%; in the data set with Danio rerio [20], 15%; in the data set filed under Danio rerio [22], 0%; in the data set filed under Danio rerio [23], 15%; in the data set on Danio rerio [26], 15%. The Activity with Danio rerio [27] is 10%; in the data set with Danio rerio [28] it was 5%; in the data set filed under Danio rerio [29], 15%; in the data set filed under Danio rerio [30], 15%; in the data set listed under Danio rerio [31], 0%; in the data set listed under Danio rerio [33], 10%. Further, the Activity in the data set on Danio rerio [34] is recorded as 0%; in the data set filed under Danio rerio [35], 0%; in the data set filed under Danio rerio [36] it was 15%; in the data set filed under Danio rerio [37], 15%; in the data set listed under Danio rerio [38] it was 10%; in the data set filed under Danio rerio [39] it was 15%. The results for the Activity in the data set listed under Danio rerio [40] and with Danio rerio [41] were 40% and 20%, respectively. The survival at 72 h, 0.05 µM in data set [3] was 95%. The result in the data set with HPBALL [4], with HPBALL [24] and with HPBALL [25] was Active. In data set [7], the survival at 72 h, 0.5 µM stood at 100%. Also, the survival at 72 h, 0.005 µM in [8] was 100%. Further, the survival at 72 h, 5 µM in [21] is 95%. In addition, the survival at 72 h, 50 µM in [32] was 100%.
Regarding `CCc1c(C(=O)Nc2cc(/C=C/C(=O)NO)ccc2OC)[nH]c(C)c1C(C)=O`, in the data set with K562 [42], the outcome was Active.
